Results: patent US8771665B2 (Cocrystal Discovery, Inc., priority 2010, dated 2014)

These compounds were tested against T1, HCV1b NS5B polymerase delta 21 (Hepatitis C virus genotype 1b, UniProt P26663) (assay: RNA-Dependent RNA HCV NS5B (Polymerase) Assay and IC50 Determination).
T1 construct: purified HCV1b NS5B polymerase delta 21
T1 sequence (P26663 2420-2989): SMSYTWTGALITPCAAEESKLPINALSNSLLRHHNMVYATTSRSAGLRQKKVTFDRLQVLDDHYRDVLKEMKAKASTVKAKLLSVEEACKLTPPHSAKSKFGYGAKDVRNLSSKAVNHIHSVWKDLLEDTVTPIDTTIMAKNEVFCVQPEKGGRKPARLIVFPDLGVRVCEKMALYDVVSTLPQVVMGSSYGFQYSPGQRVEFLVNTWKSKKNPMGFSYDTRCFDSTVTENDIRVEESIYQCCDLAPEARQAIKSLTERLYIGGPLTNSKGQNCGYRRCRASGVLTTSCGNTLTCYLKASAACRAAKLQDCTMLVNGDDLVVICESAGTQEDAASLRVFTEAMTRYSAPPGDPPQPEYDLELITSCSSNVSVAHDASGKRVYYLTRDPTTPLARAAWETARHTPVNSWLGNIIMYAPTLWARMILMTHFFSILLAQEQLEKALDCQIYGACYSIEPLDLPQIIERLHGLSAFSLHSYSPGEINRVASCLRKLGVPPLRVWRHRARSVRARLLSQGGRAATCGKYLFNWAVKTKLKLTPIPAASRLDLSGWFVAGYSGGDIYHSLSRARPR
Assay type: biochemical
Protocol: RNA-Dependent RNA HCV NS5B (Polymerase) Assay and IC50 Determination
In vitro RNA-dependent RNA polymerase activity was determined in a reaction mixture (50 μL) containing 50 mM Tris-HCl, pH 7.5, 5 mM MgCl2, 1 mM dithiothreitol, 0.5% Triton® X-100, 10 μM of UTP, 0.1-0.5 μCi of α-^32P UTP (Perkin Elmer Life Sciences), 1 μg of polyA:U16 (Midland Oligo), and 0.6 μg of purified HCV1b NS5B polymerase delta 21. Different concentrations of compounds were added to the reaction mixtures. The reaction was carried out at RT (23° C.) for 60 min and then stopped by the addition of 100 μL of 50 mM EDTA. The reaction mixtures were filtered through either a DE81 membrane or a positively charged nylon membrane, and the membranes were then extensively washed with 30 mM sodium citrate, pH 7.0 and 300 mM NaCl. The radiolabeled RNA products were quantitated using a Storm™ Phosphorlmager™ (GE Life Sciences). IC50 values were calculated using GraFit 6 and GraphPad Prism 5 from triplicate assays.
For `CC1CCC(C2=C(c3cc(-c4ccc(NC(=O)c5cscn5)cc4)sc3C(=O)OCOC(=O)C(C)(C)C)CCN(C)C2)CC1` (stereo not shown) [Example 101, 3-[1-Methyl-5-(4-methyl-cyclohexyl)-1,2,3,6-tetrahydro-pyridin-4-yl]-5-{4-[(thiazole-4-carbonyl)-amino]-phenyl}-thiophene-2-carboxylic acid 2,2-dimethyl-propionyloxymethyl ester], the IC50 was > 10 µM. In the case of `CCN1CCC(c2cc(-c3ccc(NC(=O)c4cocn4)cc3)sc2C(=O)O)=C(C2CCC(C)CC2)C1` (stereo not shown) [Example 052, 3-[1-Ethyl-5-(4-methyl-cyclohexyl)-1,2,3,6-tetrahydro-pyridin-4-yl]-5-{4-[(oxazole-4-carbonyl)-amino]-phenyl}-thiophene-2-carboxylic acid], the IC50 is reported as < 3 µM. Work on `CCCC(=O)OCOC(=O)c1sc(-c2ccc(NC(=O)c3cscn3)cc2)cc1C1=C(C2CCC(C)CC2)CN(C)CC1` (stereo not shown) [Example 105, 3-[1-Methyl-5-(4-methyl-cyclohexyl)-1,2,3,6-tetrahydro-pyridin-4-yl]-5-{4-[(thiazole-4-carbonyl)-amino]-phenyl}-thiophene-2-carboxylic acid butyryloxymethyl ester] yielded an IC50 of 3 to 10 µM. `Cc1oc(=O)oc1COC(=O)c1sc(-c2ccc(NC(=O)c3cscn3)cc2)cc1C1=C(C2CCC(C)CC2)CN(C)CC1` (stereo not shown) [Example 108, 3-[1-Methyl-5-(4-methyl-cyclohexyl)-1,2,3,6-tetrahydro-pyridin-4-yl]-5-{4-[(thiazole-4-carbonyl)-amino]-phenyl}-thiophene-2-carboxylic acid 5-methyl-2-oxo-[1,3]-dioxol-4-ylmethyl ester] was tested, and the IC50 was < 3 µM. `CCN1CCC(c2cc(-c3ccccc3)sc2C(=O)O)=C(C2CCC(C)CC2)C1` (stereo not shown) [Example 044, 3-[1-Ethyl-5-(4-methyl-cyclohexyl)-1,2,3,6-tetrahydro-pyridin-4-yl]-5-phenyl-thiophene-2-carboxylic acid] was tested, and the IC50 was < 3 µM. `CC1CCC(C2=C(c3cc(C#CC(C)(C)C)sc3C(=O)O)CNCC2)CC1` (stereo not shown) [Example 111, 5-(3,3-Dimethyl-but-1-ynyl)-3-[4-(4-methyl-cyclohexyl)-1,2,5,6-tetrahydro-pyridin-3-yl]-thiophene-2-carboxylic acid] was tested, and the IC50 was < 3 µM. In the case of `CCN1CCC(c2cc(-c3cccc(N)c3)sc2C(=O)O)=C(C2CCC(C)CC2)C1` (stereo not shown) [Example 026, 5-(3-Amino-phenyl)-3-[1-ethyl-5-(4-methyl-cyclohexyl)-1,2,3,6-tetrahydro-pyridin-4-yl]-thiophene-2-carboxylic acid], the IC50 is reported as 3 to 10 µM. Compound `CCN1CCC(c2cc(-c3ccc(NC(=O)c4cncs4)cc3)sc2C(=O)O)=C(C2CCC(C)CC2)C1` (stereo not shown) [Example 050, 3-[1-Ethyl-5-(4-methyl-cyclohexyl)-1,2,3,6-tetrahydro-pyridin-4-yl]-5-{4-[(thiazole-5-carbonyl)-amino]-phenyl}-thiophene-2-carboxylic acid] has an IC50 of 3 to 10 µM. For `CN1CCC(c2cc(C#CC(C)(C)C)sc2C(=O)O)=C([C@H]2CC[C@H](C)CC2)C1` [Example 046, 5-(3,3-Dimethyl-but-1-ynyl)-3-[1-methyl-5-(4-methyl-cyclohexyl)-1,2,3,6-tetrahydro-pyridin-4-yl]-thiophene-2-carboxylic acid], the IC50 was < 3 µM. For `CC(=O)OCOC(=O)c1sc(-c2ccc(NC(=O)c3cscn3)cc2)cc1C1=C(C2CCC(C)CC2)CN(C)CC1` (stereo not shown) [Example 102, 3-[1-Methyl-5-(4-methyl-cyclohexyl)-1,2,3,6-tetrahydro-pyridin-4-yl]-5-{4-[(thiazole-4-carbonyl)-amino]-phenyl}-thiophene-2-carboxylic acid acetoxymethyl ester], the IC50 was > 10 µM. With `Cc1cc(C)n2nc(-c3ccc(-c4cc(C5=C(C6CCC(C)CC6)CN(C)CC5)c(C(=O)O)s4)cc3)cc2n1` (stereo not shown) [Example 161, 5-[4-(5,7-Dimethyl-pyrazolo[1,5-a]pyrimidin-2-yl)-phenyl]-3-[1-methyl-5-(4-methyl-cyclohexyl)-1,2,3,6-tetrahydro-pyridin-4-yl]-thiophene-2-carboxylic acid] the IC50 was 3 to 10 µM. With `CCN1CCC(c2cc(-c3ccc(NC(=O)c4cc(C)n(C)n4)cc3)sc2C(=O)O)=C(C2CCC(C)CC2)C1` (stereo not shown) [Example 051, 5-{4-[(1,5-Dimethyl-1H-pyrazole-3-carbonyl)-amino]-phenyl}-3-[1-ethyl-5-(4-methyl-cyclohexyl)-1,2,3,6-tetrahydro-pyridin-4-yl]-thiophene-2-carboxylic acid] the IC50 was < 3 µM. For `CC1CCC(C2=C(c3cc(-c4ccccc4)sc3C(=O)O)CCN(CCCO)C2)CC1` (stereo not shown) [Example 008, 3-[1-(3-Hydroxy-propyl)-5-(4-methyl-cyclohexyl)-1,2,3,6-tetrahydro-pyridin-4-yl]-5-phenyl-thiophene-2-carboxylic acid], the IC50 was < 3 µM. In the case of `CC1CCC(C2=C(c3cc(-c4ccc(C5=CC6N=CC=CC6O5)cc4)sc3C(=O)O)CCN(C)C2)CC1` (stereo not shown) [Example 135, 5-[4-(3a,7a-Dihydro-furo[3,2-b]pyridin-2-yl)-phenyl]-3-[1-methyl-5-(4-methyl-cyclohexyl)-1,2,3,6-tetrahydro-pyridin-4-yl]-thiophene-2-carboxylic acid], the IC50 is reported as < 3 µM. With `CC1CCC(C2=C(c3cc(-c4ccccc4)sc3C(=O)O)CCNC2)CC1` (stereo not shown) [Example 040, 3-[5-(4-Methyl-cyclohexyl)-1,2,3,6-tetrahydro-pyridin-4-yl]-5-phenyl-thiophene-2-carboxylic acid] the IC50 was < 3 µM. With `CC1CCC(C2=C(c3cc(-c4ccccc4)sc3C(=O)O)CCN(C(=O)c3cncn3C)C2)CC1` (stereo not shown) [Example 156, 3-[5-(4-Methyl-cyclohexyl)-1-(3-methyl-3H-imidazole-4-carbonyl)-1,2,3,6-tetrahydro-pyridin-4-yl]-5-phenyl-thiophene-2-carboxylic acid] the IC50 was > 10 µM. `CCN1CCC(c2cc(-c3ccc(-c4cc5ncccn5n4)cc3)sc2C(=O)O)=C(C2CCC(C)CC2)C1` (stereo not shown) [Example 015, 3-[1-Ethyl-5-(4-methyl-cyclohexyl)-1,2,3,6-tetrahydro-pyridin-4-yl]-5-(4-pyrazolo[1,5-a]pyrimidin-2-yl-phenyl)-thiophene-2-carboxylic acid] was tested, and the IC50 was < 3 µM. `CCN1CCC(c2cc(-c3ccc(NC(C)=O)cc3)sc2C(=O)O)=C(C2CCC(C)CC2)C1` (stereo not shown) [Example 018, 5-(4-Acetylamino-phenyl)-3-[1-ethyl-5-(4-methyl-cyclohexyl)-1,2,3,6-tetrahydro-pyridin-4-yl]-thiophene-2-carboxylic acid] showed an IC50 of 3 to 10 µM. With `CC1CCC(C2=C(c3cc(-c4ccc(NC(=O)c5ccccn5)cc4)sc3C(=O)O)CCN(C)C2)CC1` (stereo not shown) [Example 042, 3-[1-Methyl-5-(4-methyl-cyclohexyl)-1,2,3,6-tetrahydro-pyridin-4-yl]-5-{4-[(pyridine-2-carbonyl)-amino]-phenyl}-thiophene-2-carboxylic acid] the IC50 was < 3 µM. In the case of `CC1CCC(C2=C(c3cc(-c4ccccc4)sc3C(=O)O)CCN(C(=O)OCc3ccccc3)C2)CC1` (stereo not shown) [Example 073], the IC50 is reported as > 10 µM. For `CC1CCC(C2=C(c3cc(C#CC4(C)CC4)sc3C(=O)O)CCN(C)C2)CC1` (stereo not shown) [Example 172, 5-(1-Methyl-cyclopropylethynyl)-3-[1-methyl-5-(4-methyl-cyclohexyl)-1,2,3,6-tetrahydro-pyridin-4-yl]-thiophene-2-carboxylic acid], the IC50 was < 3 µM. `CC1CCC(C2=C(c3cc(-c4ccccc4)sc3C(=O)O)CCN(C(=O)c3cnccn3)C2)CC1` (stereo not shown) [Example 045, 3-[5-(4-Methyl-cyclohexyl)-1-(pyrazine-2-carbonyl)-1,2,3,6-tetrahydro-pyridin-4-yl]-5-phenyl-thiophene-2-carboxylic acid] was tested, and the IC50 was < 3 µM. In the case of `CCN1CCC(c2cc(C#CC(C)(C)N)sc2C(=O)O)=C(C2CCC(C)CC2)C1` (stereo not shown) [Example 021, 5-(3-Amino-3-methyl-but-1-ynyl)-3-[1-ethyl-5-(4-methyl-cyclohexyl)-1,2,3,6-tetrahydro-pyridin-4-yl]-thiophene-2-carboxylic acid], the IC50 is reported as < 3 µM. For `Cc1cc(C)n2nc(CN3CCC(c4cc(-c5ccccc5)sc4C(=O)O)=C(C4CCC(C)CC4)C3)nc2n1` (stereo not shown) [Example 088, 3-[1-(5,7-Dimethyl-[1,2,4]triazolo[1,5-a]pyrimidin-2-ylmethyl)-5-(4-methyl-cyclohexyl)-1,2,3,6-tetrahydro-pyridin-4-yl]-5-phenyl-thiophene-2-carboxylic acid], the IC50 was < 3 µM. `CC1CCC(C2=C(c3cc(C#CC(C)(C)C)sc3C(=O)O)CN(C(=O)CO)CC2)CC1` (stereo not shown) [Example 170, 5-(3,3-Dimethyl-but-1-ynyl)-3-[1-(2-hydroxy-acetyl)-4-(4-methyl-cyclohexyl)-1,2,5,6-tetrahydro-pyridin-3-yl]-thiophene-2-carboxylic acid] gave an IC50 of 3 to 10 µM. For `CC1CCC(C2=C(c3cc(-c4ccccc4)sc3C(=O)O)CCN(Cc3cncnc3)C2)CC1` (stereo not shown) [Example 157, 3-[5-(4-Methyl-cyclohexyl)-1-pyrimidin-5-ylmethyl-1,2,3,6-tetrahydro-pyridin-4-yl]-5-phenyl-thiophene-2-carboxylic acid], the IC50 was > 10 µM. In the case of `CC1CCC(C2=C(c3cc(C#CC(C)(C)C)sc3C(=O)O)CN(CCO)CC2)CC1` (stereo not shown) [Example 113, 5-(3,3-Dimethyl-but-1-ynyl)-3-[1-(2-hydroxy-ethyl)-4-(4-methyl-cyclohexyl)-1,2,5,6-tetrahydro-pyridin-3-yl]-thiophene-2-carboxylic acid], the IC50 is reported as < 3 µM. In the case of `CCCC#Cc1cc(C2=C(C3CCC(C)CC3)CN(CC)CC2)c(C(=O)O)s1` (stereo not shown) [Example 032, 3-[1-Ethyl-5-(4-methyl-cyclohexyl)-1,2,3,6-tetrahydro-pyridin-4-yl]-5-pent-1-ynyl-thiophene-2-carboxylic acid], the IC50 is reported as < 3 µM.
